Measurements taken from ChEMBL document CHEMBL1139287, “Spiro(imidazo[1,2-a]pyrano[2,3-c]pyridine-9-indenes) as inhibitors of gastric acid secretion” (Bioorg Med Chem, 2009).

Legend:
physchem [1] = assay: physchem
Description: Dissociation constant, pKa of the compound

physchem [2] = settings: octanol/water, pH 7.4
Description: Octanol-water distribution coefficient, log D at pH 7.4 at 25 degC by potentiometric titration method

[3] = Octanol-water distribution coefficient, log D by HPLC; format: physicochemical

Row | pKa (physchem [1]) | logD (physchem [2]) | logD [3] | SMILES
1 | 6.8 | 3.29 |  | CNC(=O)c1cn2c(C)c(C)nc2c2c1CCC1(CCc3ccccc31)O2 (stereo not given)
2 | 6.76 | 3.64 |  | Cc1nc2c3c(c(C(=O)NC4CC4)cn2c1C)CCC1(CCc2ccccc21)O3 (stereo not given)
3 | 6.81 | 3.19 |  | Cc1nc2c3c(c(C(=O)N4CCC4)cn2c1C)CCC1(CCc2ccccc21)O3 (stereo not given)
4 | 6.88 | 3.36 |  | Cc1nc2c3c(c(C(=O)N4CCCC4)cn2c1C)CCC1(CCc2ccccc21)O3 (stereo not given)
5 | 6.81 | 3.87 |  | Cc1nc2c3c(c(C(=O)N4CCCCC4)cn2c1C)CCC1(CCc2ccccc21)O3 (stereo not given)
6 | 6.87 | 3.42 |  | Cc1cccc2c1CCC21CCc2c(C(=O)N(C)C)cn3c(C)c(C)nc3c2O1 (stereo not given)
7 |  |  | 3 | Cc1nc2c3c(c(C(=O)N(C)C)cn2c1C)CCC1(CCc2cc(F)ccc21)O3 (stereo not given)
8 | 6.74 | 2.85 |  | Cc1nc2c3c(c(C(=O)N4CCOCC4)cn2c1C)CCC1(CCc2ccccc21)O3 (stereo not given)
9 | 6.84 |  | 2.9 | Cc1nc2c3c(c(C(=O)N(C)C)cn2c1C)CCC1(Cc2ccccc2C1)O3
10 | 6.55 | 3.57 |  | Cc1nc2c3c(c(C(=O)N4CC(F)(F)C4)cn2c1C)CCC1(CCc2ccccc21)O3 (stereo not given)
11 | 6.76 | 4.7 |  | Cc1nc2c3c(c(C(=O)Nc4ccccc4)cn2c1C)CCC1(CCc2ccccc21)O3 (stereo not given)
12 | 6.63 | 3.15 |  | CON(C)C(=O)c1cn2c(C)c(C)nc2c2c1CCC1(CCc3ccccc31)O2 (stereo not given)
13 | 6.84 | 2.91 |  | Cc1nc2c3c(c(C(=O)N(C)C)cn2c1C)CCC1(CCc2ccccc21)O3 (racemic)
